Test results published in patent publication US20240299504A1, “COMPOSITIONS AND METHODS FOR TREATING ALZHEIMERS DISEASE” (priority 2023, published 2024).

Tested on: 5×FAD mice
Assay: Y-maze test
Type: in vivo, mouse
Description: Parathyroid hormone (human) was purchased from TOCRIS Bioscience (Cat #3011/1, Abingdon, United Kingdom). WT or 5×FAD mice (both male and female) were treated with PTH1-34 intermittently [once daily injection of hPTH1-34 (50 μg/Kg) or vehicle (0.9% sodium chloride) (as a control) by subcutaneous injection, starting at 2-MO, 5 days per week] as described previously. Mice were then subjected to behavioral tests and sacrificed for examinations of their bone and brain phenotypes at the indicated ages.
Mice (female and male) at the age of ˜5-MO were subjected to behavioral studies. The experimental procedures are described as previously. […] The total arm entries and the number of tri-ads were recorded to quantify the percentage of spontaneous alternation. For novel object recognition (NOR), which tests mouse's memory ability for a novel object, 20 min were recorded to analyze the time to explore the old object vs. the new object of each mouse. […] During test trials, one of the objects was replaced with a new object and mice were free to explore for another 20 min, and the time spent exploring the new object and the old object was recorded. The discrimination index is quantified as the novelty object preference, which is the time spent exploring the new object minus the time exploring the old object over the total exploration time.

CC[C@H](C)[C@H](NC(=O)[C@H](CCC(=O)O)NC(=O)[C@H](CO)NC(=O)[C@@H](NC(=O)[C@@H](N)CO)C(C)C)C(=O)N[C@@H](CCC(N)=O)C(=O)N[C@@H](CC(C)C)C(=O)N[C@@H](CCSC)C(=O)N[C@@H](Cc1cnc[nH]1)C(=O)N[C@@H](CC(N)=O)C(=O)N[C@@H](CC(C)C)C(=O)NCC(=O)N[C@@H](CCCCN)C(=O)N[C@@H](Cc1cnc[nH]1)C(=O)N[C@@H](CC(C)C)C(=O)N[C@@H](CC(N)=O)C(=O)N[C@@H](CO)C(=O)N[C@@H](CCSC)C(=O)N[C@@H](CCC(=O)O)C(=O)N[C@@H](CCCN=C(N)N)C(=O)N[C@H](C(=O)N[C@@H](CCC(=O)O)C(=O)N[C@@H](Cc1c[nH]c2ccccc12)C(=O)N[C@@H](CC(C)C)C(=O)N[C@@H](CCCN=C(N)N)C(=O)N[C@@H](CCCCN)C(=O)N[C@@H](CCCCN)C(=O)N[C@@H](CC(C)C)C(=O)N[C@@H](CCC(N)=O)C(=O)N[C@@H](CC(=O)O)C(=O)N[C@H](C(=O)N[C@@H](Cc1cnc[nH]1)C(=O)N[C@@H](CC(N)=O)C(=O)N[C@@H](Cc1ccccc1)C(=O)O)C(C)C)C(C)C [PTH1-34]
Y maze spontaneous alternation (5×FAD female mice ~5-MO vs Veh-treated 5×FAD female): an increase in spontaneous alternation | Y maze spontaneous alternation (5×FAD male mice ~5-MO vs Veh): positive effect on the spontaneous alternation
